According to patent publication US8778874B2, “Glycopeptide antibiotic monomer derivatives” (priority 2004, dated 2014):

Tested on: vancomycin-resistant enterococcus (VRE VanA)
Experiment: In vitro assay of antimicrobial activity: MIC by the microdilution method using cation adjusted Mueller-Hinton broth
Type: cell-based
Method: In Vitro Assay of Antimicrobial Activity
For several compounds of the invention, minimal inhibitory concentration (MIC) was determined by the microdilution method using cation adjusted Mueller-Hinton broth well known in the art.

[1] = E. faecalis SR7914 (VRE: Van A)

CNC(CC(C)C)C(=O)NC1C(=O)N[C@@H](CC(N)=O)C(=O)N[C@H]2C(=O)N[C@H]3C(=O)N[C@H](C(=O)N[C@@H](C(=O)O)c4cc(O)cc(O)c4-c4cc3ccc4O)C(O)c3ccc(c(Cl)c3)Oc3cc2cc(c3OC2OC(CO)[C@H](O)C(O)[C@H]2O[C@@H]2CC(C)(NCc3cccc(NC(=O)c4ccc(C)c(OCc5ccccc5)c4[N+](=O)[O-])c3)[C@@H](O)C(C)O2)Oc2ccc(cc2Cl)[C@H]1O (stereo partly drawn) [Compound 10]
minimal inhibitory concentration (MIC) [1]: 2 | minimal inhibitory concentration (MIC) (E. faecium SR7917 (VRE: Van A)): 2

CNC(CC(C)C)C(=O)NC1C(=O)N[C@@H](CC(N)=O)C(=O)N[C@H]2C(=O)N[C@H]3C(=O)N[C@H](C(=O)N[C@@H](C(=O)O)c4cc(O)cc(O)c4-c4cc3ccc4O)C(O)c3ccc(c(Cl)c3)Oc3cc2cc(c3OC2OC(CO)[C@H](O)C(O)[C@H]2O[C@@H]2CC(C)(NCc3ccc(OCCCNC(=O)c4ccc(C)c(OCc5ccccc5)c4[N+](=O)[O-])cc3)[C@@H](O)C(C)O2)Oc2ccc(cc2Cl)[C@H]1O (stereo partly drawn) [Compound 16]
minimal inhibitory concentration (MIC) [1]: 4 | minimal inhibitory concentration (MIC) (E. faecium SR7917 (VRE: Van A)): 4

CN[C@H](CC(C)C)C(=O)N[C@H]1C(=O)N[C@@H](CC(N)=O)C(=O)N[C@H]2C(=O)N[C@H]3C(=O)N[C@H](C(=O)N[C@H](C(=O)O)c4cc(O)cc(O)c4-c4cc3ccc4O)[C@H](O)c3ccc(c(Cl)c3)Oc3cc2cc(c3O[C@@H]2O[C@H](CO)[C@@H](O)[C@H](O)[C@H]2O[C@H]2C[C@](C)(N)[C@H](O)[C@H](C)O2)Oc2ccc(cc2Cl)[C@H]1O [VCM, vancomycin, reference compound]
minimal inhibitory concentration (MIC) [1]: >64 | minimal inhibitory concentration (MIC) (E. faecium SR7917 (VRE: Van A)): >64
